Measured values taken from patent publication US20240117303A1, “METHODS AND COMPOSITIONS FOR GENERATING HUMAN MIDBRAIN DOPAMINERGIC NEURONS FROM NEURAL PROGENITOR CELLS” (Trailhead Biosystems Inc., priority 2022, published 2024).
“Also recorded” adds a separate entry of the source.

How the values were obtained:
[1] = tested on: stage 1 neural stem cells; assay: HD-DoE 12-factor experiment for stage 2 recipe (first model, FIG. 5-7, 12); assay type: cell-based, human; details: for impact on expression of LMX1A / impact on expression of FOXA2: dynamic profile / model, 12 effectors; for value of FOXA2 in absence of the factor: 10,000 with all factors; for value of LMX1A in absence of the factor: 30,000 with all factors
Text: To further guide the differentiation of midbrain-committed neural stem cells to neural progenitor cells at stage 2, we performed an additional HD-DoE experiment. We thereby obtained additional gene regulatory models that were used for preparation of differentiation protocol. The basis of this was a 12-factor HD-DoE experiment with focus on initiation of differentiation of cells toward midbrain neural progenitor cells for an additional 3 days after termination of stage 1 treatment. Here, we focused on expression of LMX1A and FOXA2 in neural progenitor cells with low to zero expression of GBX2. LMX1A had significant high expression level in the model with value of 47888. Therefore, we used optimization setting for this gene to identify the positive factors. The factors in this experiment included SC79, MK2206, ZM336372, PD0325901, CHIR99021, A 83-01, TTNPB, AGN193109, GW3965, SR9243, Purmorphamine and GSI-XX.
(§1) To assess the impact of elimination of each validated factor, we used dynamic profile analysis and compared the expression level of genes of interest in absence of each finalized factor while others are present.
In the stage 2 recipe, each of the six finalized factors were removed while the other five factors were present and the expression levels of FOXA2, LMX1A and GBX2 were assessed, compared to the levels in the presence of all factors. According to the first experiment model, the absence of TTNPB lead to a rise of GBX2 expression, while the value of FOXA2 and LMX1A reduced drastically from 10,000 to 0 and 30,000 to 15,000, respectively. The absence of A 83-01 reduced the expression of FOXA2 from 10,000 to 7000, however, as expected, the value of LMX1A increased from 30,000 to 40,000. […] According to the second experiment model, the absence of BMP7 and MK2206 both reduced the level of FOXA2 while increasing the value of LMX1A, with BMP7 as the main effector that led to 0 expression of FOXA2.

[2] = tested on: stage 2 neural progenitors; assay: HD-DoE 12-factor model for stage 3 recipe (FIG. 19-23, 29); assay type: cell-based, human
Text: To develop the neuronal differentiation recipes, the impact of various agonist and antagonists (effectors) on maturation of MB neural progenitors was investigated using the HD-DoE method described in Example 1. These effectors were chosen based on available literature on developmental biology, differentiation of stem cells as well as mouse and human single cell RNA-seq data from midbrain neurons at the time.
To engineer the recipe of stage 3 of differentiation, cells were first cultured in the stage 1 and stage 2 media as described herein, then they were treated with combinations of 8 or 12 factors for 3 days and the gene expression of cells in each condition was modeled. To guide the cells towards a subtype of midbrain dopaminergic neurons that reside in Substantia Nigra pars compacta (SNc) region of the brain, neural progenitors need to be SOX6^+ (Pereira et al. (2021) Cell Rep. 37:109975 Oosterveen et al. (2021) Stem Cell Reports 16:2718-2735 Poulin et al. (2020) Trends Neurosci. 43:155-169). CORIN, NGN2 and MSX1 are other markers involved in neurogenesis of dopaminergic neurons originating from floorplate region of developing midbrain (Wang et al. (2020) Cells 9:1489; Samata et al. (2016) Nat Commun. 7:13097; Ono et al. (2007) Development 134:3213-3225; Prakash et al. (2006) J. Physiol. 575:403410).
Therefore, we focused on maximizing expression of SOX6, CORIN, NGN2 and MSX1 in modeling experiments. One of the 12-factor models, the results of which are shown in FIG. 19, including LDN193189, AGN193109, BMP7, TTNPB, PD0325901, A8301, MHY1485, CHIR99021, XAV939, SANT-1, Purmorphamine and MK2206, provided a combination set that could maximize expression level of CORIN to more than 2000.
To assess the impact of elimination of each validated factor identified in Example 5 for the stage 3 and stage 4 recipes, we used dynamic profile analysis and compared the expression level of genes of interest in absence of each finalized factor while others are present.
In the stage 3 recipe, each of the finalized factors were removed in their respective models while other factors were present and the expression level of genes of interest was assessed compared to presence of all factors. When AGN193109 was excluded, level of all CORIN, KCNJ6, MSX1 and SOX6 decreased from 900 to 450, 50 to 35, 140 to 110 and 105 to 60, respectively. […] When PD0325901 was removed, expression levels of CORIN and KCNJ6 increased to 1200 and 70 while levels of MSX1 and SOX6 decreased to 105 and 20. In the absence of CHIR99021, the expression level of CORIN was again increased to 1200 while the level of KCNJ6 and MSX1 dropped to 50 and 115. […] Therefore, it was decided to include this compound in the final recipe. […] Therefore, CHIR99021 was also included in the final recipe.

[3] = tested on: human pluripotent stem cells; assay: HD-DoE 13-factor experiment for stage 1 recipe, gene expression modeled after 3-day treatment; dynamic profile and factor criticality analysis; assay type: cell-based; details: for impact on expression of FOXA2 / impact on expression of OTX2: 13 effectors; for expression level of LMX1A in absence of the factor / expression level of FOXA2 in absence of the factor / expression level of DMBX1 in absence of the factor / expression level of OTX2 in absence of the factor: stage 1 recipe, other four factors present; for expression level of LMX1A in absence of the factor: 300 with all five factors; for expression level of FOXA2 in absence of the factor: 600 with all five factors; for expression level of DMBX1 in absence of the factor: 3000 with all five factors; for expression level of OTX2 in absence of the factor: 12000 with all five factors
Text: This example utilizes a method of High-Dimensional Design of Experiments (HD-DoE), as previously described in Bukys et al. (2020) Iscience 23:101346. The method employs computerized design geometries to simultaneously test multiple process inputs and offers mathematical modeling of a deep effector/response space. The method allows for finding combinatorial signaling inputs that control a complex process, such as during cell differentiation. It allows testing of multiple plausible critical process parameters, as such parameters impact output responses, such as gene expression. Because gene expression provides hallmark features of the phenotype of, for example, a human cell, the method can be applied to identify, and understand, which signaling pathways control cell fate. In the current example, the HD-DOE method was applied with the intent to find conditions for induction of midbrain neural progenitor-expressed genes, directly from the pluripotent stem cell state.
To develop the recipe for each stage, the impact of agonists and antagonists of multiple signaling pathways (referred to herein as “effectors”) on the expression of two sets of 53 pre-selected genes after a 3-day treatment was tested and modeled. These effectors are small molecules or proteins that are commonly used during stepwise differentiation of stem cells to specific fates. The choice of the effectors to test was based on current literature on neural induction in the midbrain region of the developing brain and differentiation of stem cells to neural progenitors.
To test the effectors, experiments with at least 8 factors were designed that can assess the response of cells to 48 or more different combinations of effectors in a range of concentrations. To analyze the models, we focused on expression of genes expressed in the midbrain region, including OTX2, DMBX1, FOXA2, LMX1A, and on the absence of GBX2, which is a hindbrain marker. The impact of each effector on gene expression level is defined by a parameter called factor contribution that is calculated for each effector during the modeling.
To identify the recipe of stage 1 of differentiation, cells were treated with various effectors for 3 days and the gene expression of cells was modeled. […] This model consisted of 13 factors including LDN193189, PD173074, BLU9931, Purmorphamine, SC79, MK2206, ZM336372, PD0325901, CHIR99021, XAV939, UCLA-gp130, Tofacitinib and GO 6983.
as §1
In the stage 1 recipe, each of the five finalized factors were removed while the other four factors were present and the expression levels of OTX2, DMBX1, FOXA2 and LMX1A was assessed compared to the levels in the presence of all five factors (FIG. 11A-B). […] Expression level of DMBX1 increased in absence of LDN193189, however values of OTX2, FOXA2 and LMX1A decreased.

[4] = model optimized for LMX1A, positive impact
[5] = model optimized for maximum expression of FOXA2, positive impact
[6] = stage 2 recipe, first experiment model
[7] = model optimized for MSX1, negative regulatory effect
[8] = model optimized for SOX6, negative impact
[9] = model optimized for maximum expression of FOXA2, positive effect
[10] = model maximizing expression of CORIN, positive regulatory impact
[11] = model maximizing expression of CORIN, negative impact
[12] = Purmorphamine added to the original 4 effectors, dynamic profile

## C/C(=C\c1ccc(C(=O)O)cc1)c1ccc2c(c1)C(C)(C)CCC2(C)C [TTNPB]
[1]
  impact on expression of LMX1A: positive impact
[1]; [4]
  factor contribution: 19.5
[1]; [5]
  factor contribution: 10.7
[1]; [6]
  GBX2 expression in absence of the factor: rise
  value of FOXA2 in absence of the factor: 0
  value of LMX1A in absence of the factor: 15,000
[2]; [7]
  factor contribution: 15.5
[2]; [8]
  factor contribution: 9.5

## c1ccc2c(-c3cnn4cc(-c5ccc(N6CCNCC6)cc5)cnc34)ccnc2c1 [LDN193189]
[3]; dynamic profile
  impact on expression of FOXA2: positive impact
  impact on expression of OTX2: positive impact
[3]; [9]
  factor contribution: 13.6
[3]; model optimized for maximum expression of OTX2, positive impact, 3-day treatment
  factor contribution: 11.9
[3]
  expression level of LMX1A in absence of the factor: decreased
  expression level of FOXA2 in absence of the factor: decreased
  expression level of DMBX1 in absence of the factor: increased
  expression level of OTX2 in absence of the factor: decreased
[2]; dynamic profile, 12 effectors
  impact on expression level of MSX1: high negative impact
[2]; [10]
  factor contribution: high positive factor contributions
[2]; [7]
  factor contribution: 19.9

## Oc1nc(-c2ccc(C(F)(F)F)cc2)nc2c1CSCC2 [XAV939]
[2]; [11]
  factor contribution: 13.5
[2]; [7]
  factor contribution: 11.2
[2]; [8]
  factor contribution: 10.8

## CCOC(=O)C1=C(N)Oc2ccc(Cl)cc2C1C(C#N)C(=O)OCC (centres unmarked) [SC79]
[1]; [4]
  factor contribution: 7.3

## c1ccc2c(Oc3nc(Nc4ccc(N5CCOCC5)cc4)c4ncn(C5CCCCC5)c4n3)cccc2c1 [Purmorphamine]
[3]; OTX2-optimized setting
  impact on expression of DMBX1: did not have a positive impact
  impact on expression of LMX1A: did not have a positive impact
[3]; [12]
  expression level of DMBX1: 3000
  expression level of LMX1A: 450
  expression level of OTX2: 11000
[3]; dynamic profile
  impact on expression of FOXA2: positive impact
  impact on expression of OTX2: did not have a positive impact
[3]; [9]
  factor contribution: 22.2
[3]
  expression level of LMX1A in absence of the factor: beneficial
  expression level of FOXA2 in absence of the factor: reduction
  expression level of DMBX1 in absence of the factor: beneficial
  expression level of OTX2 in absence of the factor: beneficial
[1]
  impact on expression of FOXA2: positive effect; also recorded: positive impact
[1]; [5]
  factor contribution: 15.3
[1]; negative effect on LMX1A expression levels
  factor contribution: 26.2
[1]; without addition of Purmorphamine, dynamic profile
  expression level of FOXA2: 5000

## Cc1nn(-c2ccccc2)c(C)c1/C=N/N1CCN(Cc2ccccc2)CC1 [SANT-1]
[2]; [11]
  factor contribution: 9.9

## Cc1ccc(C2=CCC(C)(C)c3ccc(C#Cc4ccc(C(=O)O)cc4)cc32)cc1 [AGN193109]
[1]; [4]
  factor contribution: < 1
[2]; dynamic profile, 12 effectors
  impact on expression of KCNJ6: positive impact
[2]; [10]
  factor contribution: 20.3
[2]; model optimized for maximum expression of KCNJ6, positive regulators
  factor contribution: 17
[2]; model optimized for maximum expression of SOX6, positive impact
  factor contribution: 26.1
[2]; stage 3 recipe, other factors present, 50 with all factors
  expression level of KCNJ6 in absence of the factor: 35
[2]; stage 3 recipe, other factors present, 105 with all factors
  expression level of SOX6 in absence of the factor: 60
[2]; stage 3 recipe, other factors present, 140 with all factors
  expression level of MSX1 in absence of the factor: 110
[2]; stage 3 recipe, other factors present, 900 with all factors
  expression level of CORIN in absence of the factor: 450

## O=C(O)Cc1cccc(OCCCN(Cc2cccc(C(F)(F)F)c2Cl)CC(c2ccccc2)c2ccccc2)c1 [GW3965]
[1]
  impact on expression of FOXA2: positive impact
  impact on expression of LMX1A: positive impact
[1]; [4]
  factor contribution: 5.4
[1]; [6]
  value of FOXA2 in absence of the factor: 17,000
  value of LMX1A in absence of the factor: 10,000

## Cc1cccc(-c2nn(C(=S)Nc3ccccc3)cc2-c2ccnc3ccccc23)n1 [A 83-01]
[1]; addition of A 83-01 at 300 nM, dynamic profile
  level of GBX2: ~0
[1]
  impact on expression of FOXA2: positive impacts
[1]; [5]
  factor contribution: 6.7
[1]; [6]
  value of FOXA2 in absence of the factor: 7000
  value of LMX1A in absence of the factor: 40,000
